Where two headings read alike, the source gives them in different places.
What was measured:
HsCKα1 [1] = molecular target: T1, HsCKα1 (Homo sapiens, UniProt P35790); assay: IC50 determination, spectrophotometric CK/EK enzyme assay; type: biochemical; conditions: 0.5 mM each substrate
T1 construct: made in house
Procedure: (§1) A continuous spectrophotometric 96-well plate assay was established for CK and EK activity based on an assay described. […] The reaction was initiated by addition of enzyme or substrate, as appropriate, and the rate of reaction was monitored by following the decrease in absorbance at 341 nm for 10 min at room temperature using a Thermo Multiska spectrophotometer. Experiments were carried out to ensure that coupling enzymes were not rate-limiting under any of the conditions used and control experiments lacking substrates and/or enzyme were carried out to correct for any background rate.
(§2) The enzyme was pre-incubated for 5 min with varying concentrations of inhibitor prior to reaction being started by addition of 0.5 mM each substrate. The IC50 values were estimated using Grafit 5 (Erithacus Software Ltd).

PfCK [2] = molecular target: T2, PfCK (Plasmodium falciparum, UniProt Q8IM71); assay: as above; type: biochemical; conditions: for IC50: 0.5 mM each substrate
T2 construct: made in house
T2 sequence (Q8IM71 1-440): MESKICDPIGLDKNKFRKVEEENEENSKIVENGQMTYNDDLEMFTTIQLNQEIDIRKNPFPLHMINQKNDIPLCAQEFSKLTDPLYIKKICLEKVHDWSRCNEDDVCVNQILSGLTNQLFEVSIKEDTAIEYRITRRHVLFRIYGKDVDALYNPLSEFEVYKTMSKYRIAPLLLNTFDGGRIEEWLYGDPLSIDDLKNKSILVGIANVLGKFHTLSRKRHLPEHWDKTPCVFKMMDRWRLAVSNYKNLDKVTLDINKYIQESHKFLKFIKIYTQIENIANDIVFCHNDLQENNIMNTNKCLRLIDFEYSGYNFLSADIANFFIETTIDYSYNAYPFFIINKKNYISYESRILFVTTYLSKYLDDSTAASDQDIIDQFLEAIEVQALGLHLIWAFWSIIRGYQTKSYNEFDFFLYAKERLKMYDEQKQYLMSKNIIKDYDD
Procedure: as §1, §2

P. falciparum 3D7 [3] = assay: microscopy of tightly synchronized asexual blood stage culture; type: cell-based, Plasmodium falciparum; conditions: EC90; synchronized ring stage parasites 6–12 hours post invasion
Procedure: P. falciparum 3D7 was cultured according to standard methods, and a 6 hours window was achieved by a combination of Percoll and sorbitol synchronizations. Briefly, schizonts and late trophozoites were isolated from earlier stages according to their density by centrifugation on a continuous gradient of 60% Percoll. The resulting schizonts were allowed to invade uninfected red blood cells for 6 hours and newly infected red blood cells were subjected to a 5% sorbitol treatment for 10 minutes at 37 °C. […] Thin blood smears were Giemsa stained every 6 hours until an entire intraerythrocytic cycle was completed.

P. falciparum = test system: P. falciparum; parameters: method as in PMID 25089811; conditions: blood stages of the parasite, in vitro; read-out: IC50 against P. falciparum; cited from earlier work
P. falciparum 3D7 [4] = assay: ES-MS and ES-MS-MS lipidomic analysis of treated parasites; type: cell-based, Plasmodium falciparum; conditions: EC90 for 3 h; for effect on level of PC species: parents of 184 m/z spectra; for effect on endogenous PE species (in words): quantitative lipidomic analysis
Procedure: After washing, P. falciparum trophozoites were cultured for 18h without inhibitors, collected, treated with saponin to release the parasites from the red blood cells, and washed twice with PBS prior to Bligh & Dyer lipid extraction. Briefly, 5 × 10^8 parasite cells were dissolved in 375 μl 1:2 (v/v) chloroform:methanol and vigorously vortexed for 15 min. 125 μl of chloroform were added and 500 pmols of 1,2-dimyristoyl-sn-glycero-3-phosphocholine and 1,2-dipalmitoyl-sn-glycero-3-phosphoethanolamine were included in each sample as internal controls. 125 μl of water were added to the sample, vortexed and centrifuged at ×1000 g (RT) for 5 min to make the sample biphasic. Lower organic phase was collected and upper (aqueous) phase was re-extracted twice with 125 μls of chloroform. Lipid extracts were pooled, dried under nitrogen and stored at 4 °C for ESI-MS/MS analysis.
Lipid extracts, were dissolved in 15 μl of choloroform:methanol (1:2) and 15 μl of acetonitrile:iso-propanol:water (6:7:2) and analysed with a Absceix 4000 QTrap, a triple quadrupole mass spectrometer equipped with a nanoelectrospray source. Samples were delivered using a Nanomate interface in direct infusion mode (~125 nl/min). The lipid extracts were analysed in both positive and negative ion modes using a capillary voltage of 1.25 kV. MS/MS scanning (daughter, precursor and neutral loss scans) were performed using nitrogen as the collision gas with collision energies between 35–90 V. Each spectrum encompasses at least 50 repetitive scans. Tandem mass spectra (MS/MS) were obtained with collision energies between 35–90 V. Assignment of phospholipid and neutral lipid species is based upon a combination of survey, daughter, precursor and neutral loss scans, as well previous assignments. The identity of phospholipid peaks was verified using the LIPID MAPS: Nature Lipidomics Gateway (www.lipidmaps.org).

HsCKα1 [5] = molecular target: T1, HsCKα1; assay: Ki determination and mode of inhibition; type: biochemical; conditions: for α, HsCKα1, ATP / α, HsCKα1, Cho: alpha factor of mixed inhibition
Procedure: as §1
(§3) Activity was measured at 3–4 different concentrations of inhibitor and a fixed concentration of one substrate (as specified in the standard assay) while the second substrate was varied. GraphPad Prism 6 (GraphPad Software Inc.) was used to fit data to different inhibition models with the best fit being determined by Aike’s Informative Criteria. Kis were estimated from the best-fit model and results were reinforced by linear re-plots of the data (Lineweaver Burke, Dixon, s/v against I)[38].

PfCK [6] = molecular target: T2, PfCK; assay: Ki determination and mode of inhibition; type: biochemical
Procedure: as §1, §3

[7] = Etn as substrate, read-out: IC50 HsCK, Etn
[8] = read-out: IC50 HsCK, Cho, Cho as substrate
[9] = Etn as substrate, read-out: IC50 PfCK, Etn
[10] = read-out: IC50 PfCK, Cho, Cho as substrate
[11] = ATP as variable substrate, read-out: Ki, HsCKα1, ATP
[12] = read-out: Ki, HsCKα1, Cho, Cho as variable substrate
[13] = read-out: Ki, HsCKα1, with respect to Cho, mixed inhibition, approximate value
[14] = ATP as variable substrate, read-out: Ki, PfCK, ATP
[15] = Etn as variable substrate, read-out: Ki, PfCK, Etn
[16] = alpha factor of mixed inhibition, Cho as variable substrate
[17] = competitive inhibition, approximate value, read-out: Ki, PfCK, with respect to Etn
[18] = read-out: Ki, PfCK, Cho, Cho as variable substrate
[19] = read-out: Ki, PfCK, against Cho, mixed inhibition, approximate value

T1 sequence (P35790 whole entry): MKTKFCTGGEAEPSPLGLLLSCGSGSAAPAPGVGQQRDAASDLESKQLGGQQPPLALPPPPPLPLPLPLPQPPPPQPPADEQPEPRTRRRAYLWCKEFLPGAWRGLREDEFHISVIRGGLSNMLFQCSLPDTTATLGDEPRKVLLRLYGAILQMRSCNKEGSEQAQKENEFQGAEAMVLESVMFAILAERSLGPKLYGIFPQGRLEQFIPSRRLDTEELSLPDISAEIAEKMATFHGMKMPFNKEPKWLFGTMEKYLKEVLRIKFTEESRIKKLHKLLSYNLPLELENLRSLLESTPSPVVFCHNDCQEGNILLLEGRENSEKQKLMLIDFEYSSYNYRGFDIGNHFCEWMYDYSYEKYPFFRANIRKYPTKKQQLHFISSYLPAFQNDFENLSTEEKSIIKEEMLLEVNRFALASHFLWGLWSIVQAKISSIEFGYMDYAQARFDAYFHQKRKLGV

Q: Which results are given for `CN(C)c1cc[n+](Cc2ccc(-c3ccc(C[n+]4ccc(N5CCCC5)cc4)cc3)cc2)cc1.[Br-].[Br-]` [BR23]?
A: IC50 (HsCKα1 [1]; [7]): 0.23 µM; IC50 (HsCKα1 [1]; [8]): 0.58 µM; inhibition towards PfCKs choline kinase activity (in words) (PfCK [2]; Cho as substrate): moderate inhibition; IC50 (PfCK [2]; [9]): 12 µM; IC50 (PfCK [2]; [10]): 276 µM; effect on parasite development (P. falciparum 3D7 [3]): arrest of parasite development; IC50 (P. falciparum): 0.003 µM; reduction of endogenous PE species (P. falciparum 3D7 [4]; ES-MS-MS parents of 196 m/z, internal PE standard): > 90%; effect on level of PC species (P. falciparum 3D7 [4]): do not affect; effect on endogenous PE species (in words) (P. falciparum 3D7 [4]): significant reduction; mode of inhibition, HsCKα1, ATP (HsCKα1 [5]; ATP as variable substrate): Mixed; Ki (HsCKα1 [5]; [11]): 3.7 µM; mode of inhibition, HsCKα1, Cho (HsCKα1 [5]; Cho as variable substrate): Mixed; α, HsCKα1, ATP (HsCKα1 [5]; ATP as variable substrate): 0.73; α, HsCKα1, Cho (HsCKα1 [5]; Cho as variable substrate): 59; Ki (HsCKα1 [5]; mixed inhibition, approximate value, read-out: Ki, HsCKα1, with respect to ATP): ~4 µM; Ki (HsCKα1 [5]; [12]): 0.114 µM; Ki (HsCKα1 [5]; [13]): ~0.1 µM; mode of inhibition, PfCK, ATP (PfCK [6]; ATP as variable substrate): Competitive; Ki (PfCK [6]; [14]): 116 µM; mode of inhibition, PfCK, Cho (PfCK [6]; Cho as variable substrate): Mixed; mode of inhibition, PfCK, Etn (PfCK [6]; Etn as variable substrate): Competitive; Ki (PfCK [6]; [15]): 4.1 µM; α, PfCK, Cho (PfCK [6]; [16]): 3.915; Ki (PfCK [6]; [17]): ~4 µM; Ki (PfCK [6]; [18]): 38.2 µM; Ki (PfCK [6]; [19]): ~35 µM

Q: For `CN(C)c1cc[n+](Cc2ccc(CCCCc3ccc(C[n+]4ccc(N5CCCC5)cc4)cc3)cc2)cc1.[Br-].[Br-]` [BR25], which IC50 (HsCKα1 [1]; [7]) is on record?
A: 0.18 µM

Q: And the IC50 (HsCKα1 [1]; [8])?
A: 0.56 µM

Q: What about the “inhibition towards PfCKs choline kinase activity (in words)” value (PfCK [2]; Cho as substrate) of the same compound?
A: moderate inhibition

Q: And the IC50 (PfCK [2]; [9])?
A: 6 µM

Q: What about the IC50 (PfCK [2]; [10]) of the same compound?
A: 103 µM

Q: And the “effect on parasite development” value (P. falciparum 3D7 [3])?
A: arrest of parasite development

Q: And the IC50 (P. falciparum)?
A: 0.002 µM

Q: What about the “effect on level of PC species” value (P. falciparum 3D7 [4]) of the same compound?
A: do not affect

Q: And the “effect on endogenous PE species (in words)” value (P. falciparum 3D7 [4])?
A: almost complete loss

Q: And the “mode of inhibition, HsCKα1, ATP” value (HsCKα1 [5]; ATP as variable substrate)?
A: Mixed

Q: What about the Ki (HsCKα1 [5]; [11]) of the same compound?
A: 4.1 µM

Q: And the “mode of inhibition, HsCKα1, Cho” value (HsCKα1 [5]; Cho as variable substrate)?
A: Mixed

Q: And the “α, HsCKα1, ATP” value (HsCKα1 [5]; ATP as variable substrate)?
A: 0.49

Q: What about the “α, HsCKα1, Cho” value (HsCKα1 [5]; Cho as variable substrate) of the same compound?
A: 139

Q: What about the Ki (HsCKα1 [5]; [12]) of the same compound?
A: 0.1 µM

Q: And the Ki (HsCKα1 [5]; [13])?
A: ~0.1 µM

Q: And the “mode of inhibition, PfCK, ATP” value (PfCK [6]; ATP as variable substrate)?
A: Mixed

Q: And the Ki (PfCK [6]; [14])?
A: 65.5 µM

Q: And the “mode of inhibition, PfCK, Cho” value (PfCK [6]; Cho as variable substrate)?
A: Mixed

Q: What about the “mode of inhibition, PfCK, Etn” value (PfCK [6]; Etn as variable substrate) of the same compound?
A: Competitive

Q: What about the Ki (PfCK [6]; [15]) of the same compound?
A: 4 µM

Q: What about the “α, PfCK, ATP” value (PfCK [6]; alpha factor of mixed inhibition, ATP as variable substrate) of the same compound?
A: 2.37

Q: What about the “α, PfCK, Cho” value (PfCK [6]; [16]) of the same compound?
A: 2.025

Q: And the Ki (PfCK [6]; [17])?
A: ~4 µM

Q: And the Ki (PfCK [6]; [18])?
A: 31.9 µM

Q: What about the Ki (PfCK [6]; [19]) of the same compound?
A: ~35 µM

From PMC5018819 (Scientific Reports, 2016)
